Measured values published in patent US20240208992A1, “MACROCYCLES AS CFTR MODULATORS” (Idorsia Pharmaceuticals Ltd, priority 2021, published 2024).

Target: human F508del-CFTR (Homo sapiens, UniProt P13569, DEL508-508)
Experiment: F508del-CFTR cell surface expression (corrector activity), DiscoveRx ß-galactosidase complementation chemiluminescence assay in recombinant U2OS cell line;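 also: U2OS cells co-expressing ProLink-tagged F508del-CFTR and a membrane-anchored enzyme acceptor, where more surface CFTR restores β-galactosidase activity measured by chemiluminescence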
Conditions: for EC50: EC50, F508del-CFTR cell surface expression, U2OS cells, 16h compound incubation, geomean values; for Emax: U2OS, in relation to Emax of corrector lumacaftor (=100%), arithmetic mean values

Chain of human F508del-CFTR (P13569 with tags, fused parts or gaps DEL508-508): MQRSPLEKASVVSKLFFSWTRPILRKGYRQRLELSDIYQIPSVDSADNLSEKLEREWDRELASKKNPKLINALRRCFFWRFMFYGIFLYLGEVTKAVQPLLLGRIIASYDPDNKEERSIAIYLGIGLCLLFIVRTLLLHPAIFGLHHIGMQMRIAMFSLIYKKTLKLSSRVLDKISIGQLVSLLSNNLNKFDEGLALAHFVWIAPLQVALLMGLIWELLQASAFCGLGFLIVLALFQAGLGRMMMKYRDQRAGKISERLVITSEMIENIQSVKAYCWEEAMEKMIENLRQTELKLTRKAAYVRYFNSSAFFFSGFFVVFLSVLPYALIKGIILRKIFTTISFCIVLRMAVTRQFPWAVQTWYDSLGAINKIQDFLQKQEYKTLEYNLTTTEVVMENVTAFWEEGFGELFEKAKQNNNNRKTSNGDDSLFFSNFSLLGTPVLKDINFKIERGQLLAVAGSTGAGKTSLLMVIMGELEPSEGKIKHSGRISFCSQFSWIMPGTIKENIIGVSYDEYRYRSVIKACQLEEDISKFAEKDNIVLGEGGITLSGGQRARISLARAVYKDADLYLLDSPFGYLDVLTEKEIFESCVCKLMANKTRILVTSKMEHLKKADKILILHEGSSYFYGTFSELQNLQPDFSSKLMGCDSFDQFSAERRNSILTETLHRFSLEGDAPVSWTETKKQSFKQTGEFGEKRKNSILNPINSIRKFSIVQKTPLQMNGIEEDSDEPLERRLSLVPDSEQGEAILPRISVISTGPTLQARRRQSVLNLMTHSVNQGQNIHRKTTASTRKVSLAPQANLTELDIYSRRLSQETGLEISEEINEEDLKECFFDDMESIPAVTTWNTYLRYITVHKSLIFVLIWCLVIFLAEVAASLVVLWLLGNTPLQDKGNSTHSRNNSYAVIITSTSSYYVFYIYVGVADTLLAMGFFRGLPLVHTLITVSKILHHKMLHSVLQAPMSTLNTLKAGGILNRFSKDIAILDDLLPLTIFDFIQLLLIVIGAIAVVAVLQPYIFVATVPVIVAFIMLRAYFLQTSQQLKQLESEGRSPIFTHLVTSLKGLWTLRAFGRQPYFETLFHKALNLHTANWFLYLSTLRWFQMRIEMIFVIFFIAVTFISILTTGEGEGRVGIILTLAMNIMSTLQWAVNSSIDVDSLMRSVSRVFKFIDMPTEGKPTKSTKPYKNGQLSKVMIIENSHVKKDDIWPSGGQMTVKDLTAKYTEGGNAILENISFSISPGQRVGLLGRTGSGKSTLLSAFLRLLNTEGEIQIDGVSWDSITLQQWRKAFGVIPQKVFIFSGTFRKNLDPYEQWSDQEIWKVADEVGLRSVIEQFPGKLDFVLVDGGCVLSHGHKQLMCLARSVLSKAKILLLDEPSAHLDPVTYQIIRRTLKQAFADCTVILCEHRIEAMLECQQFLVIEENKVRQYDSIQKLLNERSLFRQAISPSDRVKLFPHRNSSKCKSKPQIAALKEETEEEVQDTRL

SMILES | EC50 [nM] | Emax [%]
CCOc1cccc(CCNC(=O)[C@@H]2CC(=O)N(C)[C@@H](CC(C)C)C(=O)N3CCN(CC4CC4)C[C@@H]3C(=O)N[C@H](Cc3ccccc3)COc3ccc4nc(C)oc4c3C(=O)N2)c1 [Example 427, (8S,12S,18aR,21R)-21-benzyl-17-(cyclopropylmethyl)-N-(3-ethoxyphenethyl)-12-isobutyl-4,11-dimethyl-6,10,13,19-tetraoxo-6,7,8,9,10,11,12,13,16,17,18,18a,19,20,21,22-hexadecahydro-15H-oxazolo[4′,5′:5,6]benzo[1,2-p]pyrazino[2,1-f][1]oxa[4,7,10,14]tetraazacycloheptadecine-8-carboxamide] | 248 | 274
CC(C)C[C@H]1C(=O)N(C)CC(=O)N[C@H](Cc2ccccc2)COc2nc3ccccn3c2C(=O)N[C@H](C(=O)NCCc2ccc3c(c2)OCO3)CC(=O)N1C [Example 430, (3R,9S,13S)-N-(2-(benzo[d][1,3]dioxol-5-yl)ethyl)-3-benzyl-9-isobutyl-7,10-dimethyl-5,8,11,15-tetraoxo-2,3,4,5,6,7,8,9,10,11,12,13,14,15-tetradecahydropyrido[2′,11:2,3]imidazo[4,5-p][1]oxa[4,7,10,14]tetraazacycloheptadecine-13-carboxamide] | 964 | 194
COc1cccc(CCNC(=O)[C@@H]2CC(=O)N(C)[C@@H](CC(C)C)C(=O)N(C)C3(CC3)C(=O)N[C@H](Cc3ccccc3)COc3cnc4ccccc4c3C(=O)N2)c1 [Example 433, (3′S,7′S,13′R)-13′-benzyl-7′-isobutyl-N-(3-methoxyphenethyl)-6′,9′-dimethyl-1′,5′,8′,11′-tetraoxo-2′,3′,4′,5′,6′,7′,8′,9′,11′,12′,13′,14′-dodecahydro-1′H-spiro[cyclopropane-1,10′-[1]oxa[4,7,10,14]tetraazacycloheptadecino[17,16-c]quinoline]-3′-carboxamide] | 167 | 344
COc1cccc(CCNC(=O)[C@@H]2CC(=O)N(C)[C@@H](CC(C)C)C(=O)N(C)C3(CC3)C(=O)N[C@H](Cc3ccccc3)COc3ccnc(OC)c3C(=O)N2)c1 [Example 438, (3′R,9′S,13′S)-3′-benzyl-9′-isobutyl-16′-methoxy-N-(3-methoxyphenethyl)-7′,10′-dimethyl-5′,8′,11′,15′-tetraoxo-2′,3′,4′,5′,8′,9′,10′,11′,12′,13′,14′,15′-dodecahydro-7′H-spiro[cyclopropane-1,6′-pyrido[3,4-p][1]oxa[4,7,10,14]tetraazacycloheptadecine]-13′-carboxamide] | 474 | 422
COc1cccc(CCNC(=O)[C@@H]2CC(=O)N(C)[C@@H](CC(C)C)C(=O)N(C)C3(CC3)C(=O)N[C@H](Cc3ccccc3)COc3cnc4c(F)cccc4c3C(=O)N2)c1 [Example 439, (3′S,7′S,13′R)-13′-benzyl-18′-fluoro-7′-isobutyl-N-(3-methoxyphenethyl)-6′,9′-dimethyl-1′,5′,8′,11′-tetraoxo-2′,3′,4′,5′,6′,7′,8′,9′,11′,12′,13′,14′-dodecahydro-1′H-spiro[cyclopropane-1,10′-[1]oxa[4,7,10,14]tetraazacycloheptadecino[17,16-c]quinoline]-3′-carboxamide] | 253 | 345
COc1cccc(CCNC(=O)[C@@H]2CC(=O)N(C)[C@@H](CC(C)C)C(=O)N(C)CC(=O)N[C@H](Cc3ccccc3)COc3ccc4ncccc4c3C(=O)N2)c1 [Example 441, (3S,7S,13R)-13-benzyl-7-isobutyl-N-(3-methoxyphenethyl)-6,9-dimethyl-1,5,8,11-tetraoxo-1,2,3,4,5,6,7,8,9,10,11,12,13,14-tetradecahydro-[1]oxa[4,7,10,14]tetraazacycloheptadecino[16,17-f]quinoline-3-carboxamide] | 815 | 326
COc1cccc(CCNC(=O)[C@@H]2CC(=O)N(C)[C@@H](CC(C)C)C(=O)N(C)C3(CC3)C(=O)N[C@H](Cc3ccccc3)COc3nc4ccccn4c3C(=O)N2)c1 [Example 442, (3′R,9′S,13′S)-3′-benzyl-9′-isobutyl-N-(3-methoxyphenethyl)-7′,10′-dimethyl-5′,8′,11′,15′-tetraoxo-2′,3′,4′,5′,8′,9′,10′,11′,12′,13′,14′,15′-dodecahydro-7′H-spiro[cyclopropane-1,6′-pyrido[2′,11:2,3]imidazo[4,5-p][1]oxa[4,7,10,14]tetraazacycloheptadecine]-13′-carboxamide] | 443 | 154

Second part, the molecule after the results:

EC50 [nM] | Emax [%] | SMILES
614 | 218 | Cc1nc2ccc3c(c2o1)C(=O)N[C@H](C(=O)NCCc1ccc(-n2nccn2)cc1)CC(=O)N(C)[C@@H](CC(C)C)C(=O)N1CCN(CC2CC2)C[C@@H]1C(=O)N[C@H](Cc1ccccc1)CO3 [Example 428, (8S,12S,18aR,21R)-N-(4-(2H-1,2,3-triazol-2-yl)phenethyl)-21-benzyl-17-(cyclopropylmethyl)-12-isobutyl-4,11-dimethyl-6,10,13,19-tetraoxo-6,7,8,9,10,11,12,13,16,17,18,18a,19,20,21,22-hexadecahydro-15H-oxazolo[4′,5′:5,6]benzo[1,2-p]pyrazino[2,1-f][1]oxa[4,7,10,14]tetraazacycloheptadecine-8-carboxamide]
606 | 224 | Cc1cc(CCNC(=O)[C@@H]2CC(=O)N(C)[C@@H](CC(C)C)C(=O)N3CCCC[C@@H]3C(=O)N[C@H](Cc3ccccc3)COc3ccc4c(cnn4C)c3C(=O)N2)on1 [Example 429, (8S,12S,18aR,21R)-21-benzyl-12-isobutyl-3,11-dimethyl-N-(2-(3-methylisoxazol-5-yl)ethyl)-6,10,13,19-tetraoxo-6,7,8,9,10,11,12,13,16,17,18,18a,19,20,21,22-hexadecahydro-3H,15H-pyrido[2′,11:6,7][1]oxa[4,7,10,14]tetraazacycloheptadecino[16,17-e]indazole-8-carboxamide]
208 | 281 | COCCCN1C(=O)[C@H](CC(C)C)N(C)C(=O)C[C@@H](C(=O)NCCc2cccc(OC)c2)NC(=O)c2c(ccc3ccccc23)OC[C@@H](Cc2ccccc2)NC(=O)[C@H]1C [Example 431, (3S,7S,10R,13R)-13-benzyl-7-isobutyl-N-(3-methoxyphenethyl)-9-(3-methoxypropyl)-6,10-dimethyl-1,5,8,11-tetraoxo-1,2,3,4,5,6,7,8,9,10,11,12,13,14-tetradecahydronaphtho[1,2-p][1]oxa[4,7,10,14]tetraazacycloheptadecine-3-carboxamide]
474 | 413 | Cc1cc(CCNC(=O)[C@@H]2CC(=O)N(C)[C@@H](CC3CCCC3)C(=O)N(C)C3(CC3)C(=O)N[C@H](Cc3ccccc3)COc3cnc4ccccc4c3C(=O)N2)on1 [Example 432, (3′S,7′S,13′R)-13′-benzyl-7′-(cyclopentylmethyl)-6′,9′-dimethyl-N-(2-(3-methylisoxazol-5-yl)ethyl)-1′,5′,8′,11′-tetraoxo-2′,3′,4′,5′,6′,7′,8′,9′,11′,12′,13′,14′-dodecahydro-1′H-spiro[cyclopropane-1,10′-[1]oxa[4,7,10,14]tetraazacycloheptadecino[17,16-c]quinoline]-3′-carboxamide]
664 | 327 | Cc1cc(CCNC(=O)[C@@H]2CC(=O)N(C)[C@@H](CC(C)C)C(=O)N(C)C3(CC3)C(=O)N[C@H](Cc3ccccc3)COc3cnc4ccccc4c3C(=O)N2)on1 [Example 434, (3′S,7′S,13′R)-13′-benzyl-7′-isobutyl-6′,9′-dimethyl-N-(2-(3-methylisoxazol-5-yl)ethyl)-1′,5′,8′,11′-tetraoxo-2′,3′,4′,5′,6′,7′,8′,9′,11′,12′,13′,14′-dodecahydro-1′H-spiro[cyclopropane-1,10′-[1]oxa[4,7,10,14]tetraazacycloheptadecino[17,16-c]quinoline]-3′-carboxamide]
895 | 119 | Cc1cc(CCNC(=O)[C@@H]2CC(=O)N(C)[C@@H](CC3CCCC3)C(=O)N3CCOC[C@@H]3C(=O)N[C@H](Cc3ccccc3)COc3ccc4nc(C)oc4c3C(=O)N2)on1 [Example 435]
458 | 300 | Cc1cc(CCNC(=O)[C@@H]2CC(=O)N(C)[C@@H](CC3CCCC3)C(=O)N3CCCC[C@@H]3C(=O)N[C@H](Cc3ccccc3)COc3ccc4nc(C)oc4c3C(=O)N2)on1 [Example 436, (8S,12S,18aR,21R)-21-benzyl-12-(cyclopentylmethyl)-4,11-dimethyl-N-(2-(3-methylisoxazol-5-yl)ethyl)-6,10,13,19-tetraoxo-6,7,8,9,10,11,12,13,16,17,18,18a,19,20,21,22-hexadecahydro-15H-oxazolo[4′,5′:5,6]benzo[1,2-p]pyrido[2,1-f][1]oxa[4,7,10,14]tetraazacycloheptadecine-8-carboxamide]
844 | 159 | Cc1cc(CCNC(=O)[C@@H]2CC(=O)N(C)[C@@H](CC3CCCC3)C(=O)N3CCCC[C@H]3C(=O)N[C@H](Cc3ccccc3)COc3ccc4nc(C)oc4c3C(=O)N2)on1 [Example 437, (8S,12S,18aS,21R)-21-benzyl-12-(cyclopentylmethyl)-4,11-dimethyl-N-(2-(3-methylisoxazol-5-yl)ethyl)-6,10,13,19-tetraoxo-6,7,8,9,10,11,12,13,16,17,18,18a,19,20,21,22-hexadecahydro-15H-oxazolo[4′,5′:5,6]benzo[1,2-p]pyrido[2,1-f][1]oxa[4,7,10,14]tetraazacycloheptadecine-8-carboxamide]
788 | 296 | Cc1cc(CCNC(=O)[C@@H]2CC(=O)N(C)[C@@H](CC(C)C)C(=O)N(C)C3(CC3)C(=O)N[C@H](Cc3ccccc3)COc3cnc4c(F)cccc4c3C(=O)N2)on1 [Example 440, (3′S,7′S,13′R)-13′-benzyl-18′-fluoro-7′-isobutyl-6′,9′-dimethyl-N-(2-(3-methylisoxazol-5-yl)ethyl)-1′,5′,8′,11′-tetraoxo-2′,3′,4′,5′,6′,7′,8′,9′,11′,12′,13′,14′-dodecahydro-1′H-spiro[cyclopropane-1,10′-[1]oxa[4,7,10,14]tetraazacycloheptadecino[17,16-c]quinoline]-3′-carboxamide]
